The text below walks through data of US6844355B2 (Academic Pharmaceuticals, Inc., priority 1999, dated 2005).

“Also recorded” adds a separate entry of the source.

One assay deals with T1, KVLQT1+KCNE1 (IKs) (Homo sapiens, UniProt P51787).
T1 construct: expressed in transfected cells; host or cells: Xenopus laevis oocytes (co-injection of hminK and KVLQT1 cRNA)
In words: KVLQT1+KCNE1 (IKs) currents in Xenopus oocytes. The class given is cell-based. On the procedure: Wild type human minK (KCNE1) and KVLQT1 cDNA are isolated from human cardiac and pancreas cDNA libraries and cloned into the pSP64 poly (A) vector (Promega). For transcription in oocytes, the minK is subcloned from genomic DNA using the MKEL and MKER primers. The final minK expression construct contains cDNA inserted in the plasmid vector (PROMEGA). For the injection into Xenopus oocytes, cRNA is prepared using the mCAP RNA capping kit (Stratagene) following linearization of the expression construct by restriction digestion with EcoRI for run-off transcription.
In-vitro transcription is performed with SP6 RNA polymerize using the mMessage Machine kit (Ambion). The final capped-cRNA product is resuspended in 0.1 mM KCL and stored at −80° C. The concentration of synthesized RNA is estimated by separating the denatured cRNA on a 1.5% agarose gel together with the 0.24-9.5 kb RNA ladder (Gibco-BRL).
KVLQT1+KCNE1 currents are recorded with a solution containing in mmol-L: NaCl-96; KCl-2 CaCl2-1.8; MgCl2-1.0; and HEPES 5, pH 7.4. The following testing protocols are used: a) I-V plot, oocytes are held at −80 mV, then step pulses from −60 mV to +40 mV in 20 mV increments of 18 seconds are applied returning to −40 mV; b) Single pulses, the same protocol is applied for control current and after drug perfusion for current measurement. From a holding potential of −80 mV to a test potential of +40 mV during 18 seconds a pulse is applied. […] The cell is either left at a resting potential of −80 mV or stimulated from a holding potential of −80 mV to a test potential of +40 mV during 1000 ms in a frequency range of 0.3 Hz.
Isolation of oocytes and cRNA injection. Xenopus laevis frogs are anesthetized by immersion in 0.2% Trocaine for 15-30 min. A small incision is made in the lateral ventral quadrant of the abdomen and a small piece of ovarian tissue is removed. The incision is then sutured at both the muscle and the cutaneous layers with fine silk thread and the animal is allowed to recover. The ovarian lobe is digested with 10 mg/ml type 1A collagenase (Sigma) in calcium-free solution for 30-60 min to remove the follicle layer. Stage V and VI oocytes are injected with 40 nl of a solution containing 10 to 50 ng/μl cRNA of either SCN5A, HERG, or hminK and KVLQT1, and then incubated at 19° C. in a modified bath solution for 2-8 days.

Another assay deals with ileum. Put plainly: Ileum strip contractility, isometric muscle contractions. Also noted: species or system Guinea pig. Conditions: for Bursts / Slow waves / Spikes: mean ± standard deviation; for effect on ileum strip contractility, in words: Table 2 / FIG. 9. On the procedure: Rat Ileum Studies and Characterization of Chiral Separation Products. Guinea pig ileum is harvested and placed in warm (37° C.) Krebs […] buffer and oxygenated (95% O2 and 5% CO2). Segments approximately 4.5 cm long are placed on a transducer (Gilson Instruments) and a preload of 1 gm is placed on the tissue. The tissue is then placed in a chamber and bathed in Tyrode's solution (37.5° C.) and oxygenated (95% O2 and 5% CO2). Muscle contractions are measured isometrically. After stable contractions are obtained, a study compound is added to the tissue bath and recordings are made until a new steady state of contraction is obtained. Following a washout period, a new steady state of contraction is recorded and then the procedure repeated with a second dose of the drug being evaluated. Changes in contraction magnitude are recorded as the percentage change from baseline. This procedure is a modification of the technique described by Van Neuten and associates (Van Neuten et al., Life Sci. 1978 28:453-458). […] The preparation permits the identification of slow waves of contraction, bursts of contraction of the smooth muscle and spikes of marked cross-sectional contraction. Each of the measures can be used as a measurement of contractile effect of an agent.

T1 sequence (P51787 whole entry): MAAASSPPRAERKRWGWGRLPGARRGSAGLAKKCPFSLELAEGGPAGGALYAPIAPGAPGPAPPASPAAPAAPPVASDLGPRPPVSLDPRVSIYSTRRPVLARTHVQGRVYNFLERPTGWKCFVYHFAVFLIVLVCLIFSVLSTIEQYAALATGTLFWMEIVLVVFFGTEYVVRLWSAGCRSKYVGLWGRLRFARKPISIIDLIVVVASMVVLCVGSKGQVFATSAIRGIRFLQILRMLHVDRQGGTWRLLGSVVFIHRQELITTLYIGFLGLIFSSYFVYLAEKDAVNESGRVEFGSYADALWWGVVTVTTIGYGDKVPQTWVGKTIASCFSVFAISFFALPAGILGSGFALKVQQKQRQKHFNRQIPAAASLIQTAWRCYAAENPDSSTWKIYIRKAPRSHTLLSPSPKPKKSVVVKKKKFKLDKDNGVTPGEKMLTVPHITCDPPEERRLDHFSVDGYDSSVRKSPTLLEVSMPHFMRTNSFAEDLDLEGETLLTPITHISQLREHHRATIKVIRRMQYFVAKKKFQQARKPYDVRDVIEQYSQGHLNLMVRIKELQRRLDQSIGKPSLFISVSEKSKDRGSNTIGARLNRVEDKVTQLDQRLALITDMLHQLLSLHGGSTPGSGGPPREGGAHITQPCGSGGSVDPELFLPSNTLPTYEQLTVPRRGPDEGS

With `CCCCc1oc2ccccc2c1C(=O)c1cc(I)c(OCCN(CC)CC)c(I)c1` [AMIODARONE, amiodarone], the “effect on IKs current, in words” value at KVLQT1+KCNE1 (IKs) (100 μM) was “inhibits the current flow across the IKs channel”. Besides, the “% of block of IKs” value on KVLQT1+KCNE1 (IKs) (10^−4 Molar) stood at 47 ± 1%; at KVLQT1+KCNE1 (IKs) (10^−5 Molar) it was 30 ± 3%; on KVLQT1+KCNE1 (IKs) (10^−6 Molar), 15 ± 1%.

On to `C=C[C@H]1C[N@@]2CC[C@H]1C[C@@H]2[C@@H](O)c1ccnc2ccc(OC)cc12` [Quinidine, quinidine], for which the Bursts is on record as 14 ± 4 in the assay with ileum (10^−5 M), 7.7 ± 1.2 in the assay on ileum (10^−6 M) and 8 ± 2 with ileum (10^−7 M). Further, the Slow waves in the assay with ileum (10^−5 M) was 6 ± 1; in the assay with ileum (10^−6 M), 3.0 ± 0.5; in the assay on ileum (10^−7 M), 3.3 ± 0.6. In addition, the Spikes stood at 15 ± 1 with ileum (10^−5 M), 13 ± 2 in the assay with ileum (10^−6 M) and 11 ± 1 in the assay with ileum (10^−7 M). For the same compound, the “effect on rat illeal strip tracings, in words” value in the assay on ileum (10^−7 and 10^−6 M, FIG. 9 legend) is recorded as “reduces the magnitude of contraction”. Further, the “effect on ileum strip contractility, in words” value with ileum is “augmentation of slow wave contractility, burst contractility and spike contractility; also recorded: increases slow waves”. In addition, the “% of block of IKs” value at KVLQT1+KCNE1 (IKs) (10^−4 Molar) was 52 ± 5%; at KVLQT1+KCNE1 (IKs) (10^−5 Molar), 21 ± 7%; at KVLQT1+KCNE1 (IKs) (10^−6 Molar), 14 ± 5%. Further, the “reduction of IKs currents” value on KVLQT1+KCNE1 (IKs) (concentrations from 10^−6 to 10^−4, respectively) lay in the range of 14 to 52%.

Consider `C=C[C@H]1C[N@@]2CC[C@H]1C[C@H]2[C@H](O)c1ccnc2ccc(OC)cc12` [quinine], for which the “effect on ileum strip contractility, in words” value in the assay on ileum is “no effect”.
